Reference: patent US9469652B2, “ERK inhibitors” (Eli Lilly and Company, priority 2014, dated 2016)

Legend:
ERK1 = molecular target: T1, ERK1 (Homo sapiens, UniProt P27361); assay: ERK1 Kinase Assay (TR-FRET); format: biochemical; details: Abs_IC50, ATP 10 μM, GFP-ATF2 substrate; ±0.20, n=7
T1 construct: purchased Invitrogen PR5254B
Description: The purpose of this assay is to measure the ability of compounds to inhibit ERK1 kinase activity. Perform the ERK1 kinase assay in vitro using a TR-FRET assay. Start reactions (12.5 μL) by adding 5 μL of ERK1 enzyme (Invitrogen, #PR5254B, final concentration 100 ng/mL) plus substrate GFP-ATF2 (Invitrogen, #PV4445, final concentration 0.2 μM), 5 μL of ATP solution (Invitrogen, #PV3227, final concentration 10 μM) prepared in kinase buffer (50 mM Hepes pH 7.4, 5 mM MgCl2, 0.1 mM EGTA, 0.01% Triton X-100, 1 mM DTT) and 2.5 μL of testing compounds in DMSO solution (final 4%, v/v) in a 384-well PROXIPLATE™ (Perkin Elmer, #GRN6260). Incubate the reaction mixture at room temperature for 60 minutes. Stop the reaction by addition of 12.5 μL of stop buffer (10 mM EDTA, 2 nM Tb-anti-pATF2 (pThr71) antibody, Invitrogen, #PV4448) in TR-FRET dilution buffer (Invitrogen, #PV3574). Incubate the plates at room temperature for an additional 60 minutes and read on an ENVISION® (PerkinElmer) plate reader at the excitation wavelength 340 nm Calculate the TR-FRET ratio by dividing the GFP acceptor emission signal (at 520 nm) by the Tb donor emission signal (at 495 nm). Calculate percent inhibition using compound treated wells relative to on-plate Max (DMSO control) and Min (No enzyme added) control wells TR-FRET ratio data {% inhibition=100−[(test compound−median Min)/(median Max−median Min)×100]}. […]

[1] = tested on: human pancreatic cancer cells MIA PACA-2; assay: Xenograft tumor model MIA PACA-2; format: in vivo, female athymic nude mice; details: oral gavage; for Delta T/C % or Regr %: negative = regression
Description: The purpose of this assay is to measure reduction in tumor volume in response to test compound administration. Expand human colorectal cancer cells HCT116 (ATCC, # CCL-247) in culture, harvest and inject 5×10e^6 cells in 200 μL of 1:1 HBSS+matrigel solution subcutaneously on to the rear right flank of female athymic nude mice (22-25 g, Harlan Laboratories). Expand human pancreatic cancer cells MIA PACA-2 (ATCC, # CRL-1420) or human non-small cell lung cancer cells CALU-6 (ATCC, #HTB-56) or human colorectal cancer cells COLO-205 (ATCC, #CCL-222) in culture, harvest and inject 5×10e^6 cells in 200 μL of 1:1 HBSS+matrigel solution subcutaneously on to the rear right flank of female athymic nude mice (22-25 g, Harlan Laboratories). Measure tumor growth and body weight twice per week beginning the seventh day after the implantation. When tumor sizes reach 200-400 mm^3, randomize animals and group into groups of eight to ten animals. Prepare test compound in an appropriate vehicle (vehicle: 1% HEC/0.25% Tween 80/0.05% Antifoam) and administer by oral gavage for 14 to 21 days. Tumor response is determined by tumor volume measurement performed twice a week during the course of treatment. Body weight is taken as a general measure of toxicity.
A compound within the scope of invention is tested in this assay run substantially as above.

[2] = tested on: human colorectal cancer cells HCT116; assay: In vivo combination study, HCT116 KRAS mutant colorectal cancer xenograft model; details: oral, 28 days, single agent
Description: More specifically, the compound of Example 1 is tested in combination with either the pan-RAF inhibitor compound or the CDK4/6 inhibitor compound in HCT116, a KRAS mutant colorectal cancer xenograft model. Also, the compound of Example 1 is tested in combination with either the CDK4/6 inhibitor compound or DC101 in NCI-H441, A549, and NCI-H2122, KRAS mutant non-small cell lung cancer (NSCLC) xenograft models.
The HCT116 combination efficacy study is done in athymic nude rats. Expand human colorectal cancer cells HCT116 (ATCC, #CCL-247) in culture, harvest and inject 5×10e^6 cells in 200 μL of 1:1 HBSS+matrigel solution subcutaneously on to the rear right flank of female NIH nude rats (120-145 gm, Taconic Farms). Measure tumor growth and body weight twice per week beginning the seventh day after the implantation. When average tumor sizes reach 200-300 mm^3, randomize animals and group into groups of five to seven animals. Prepare test compound in an appropriate vehicle (see below) and administer by oral gavage for 21 to 28 days. Tumor response is determined by tumor volume measurement performed twice a week during the course of treatment. Vehicle used in this study is 1% HEC (hydroxy ethyl cellulose)/0.25% Tween® 80/0.05% Antifoam. The compound of Example 1 and the pan-RAF inhibitor compound are formulated in 1% HEC/0.25% Tween® 80/0.05% Antifoam. The CDK4/6 inhibitor compound is formulated in 1% HEC in 25 mM Sodium phosphate buffer, pH 2.

T1 sequence (P27361 whole entry): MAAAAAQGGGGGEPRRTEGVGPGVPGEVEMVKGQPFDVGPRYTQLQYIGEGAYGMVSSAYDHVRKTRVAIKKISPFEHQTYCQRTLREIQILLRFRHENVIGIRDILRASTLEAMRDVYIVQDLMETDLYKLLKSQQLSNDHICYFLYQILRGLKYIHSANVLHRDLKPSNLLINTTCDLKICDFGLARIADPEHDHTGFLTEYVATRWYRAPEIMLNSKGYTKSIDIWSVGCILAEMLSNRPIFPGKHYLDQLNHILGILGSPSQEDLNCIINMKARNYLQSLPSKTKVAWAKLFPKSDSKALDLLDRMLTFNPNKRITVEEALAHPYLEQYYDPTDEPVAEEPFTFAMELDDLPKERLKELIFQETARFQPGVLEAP

Cn1nccc1Nc1nccc(-c2cc3c(s2)C(C)(C)N(CCN2CCOCC2)C3=O)n1 [Example 1, 6,6-Dimethyl-2-{2-[(1-methyl-1H-pyrazol-5-yl)amino]pyrimidin-4-yl}-5-[2-(morpholin-4-yl)ethyl]-5,6-dihydro-4H-thieno[2,3-c]pyrrol-4-one]
IC50 (ERK1): 4.86 nM
TGI % ([1]; 12.5 mg/kg QD): 68%
Delta T/C % or Regr % ([1]; 12.5 mg/kg QD): 32%
TGI % ([1]; 25 mg/kg QD): 98%
Delta T/C % or Regr % ([1]; 25 mg/kg QD): 2%
TGI % ([1]; 50 mg/kg QD): 122%
Delta T/C % or Regr % ([1]; 50 mg/kg QD): −22%
TGI % ([1]; 100 mg/kg QD): 166%
Delta T/C % or Regr % ([1]; 100 mg/kg QD): −66%
Delta T/C % ([2]; 10 mg/kg QD): 48%
TGI % ([2]; 10 mg/kg QD): 52%
Delta T/C % ([2]; 20 mg/kg QD): 36%
TGI % ([2]; 20 mg/kg QD): 64%
